Assay results as given in patent US7517998B2, “Non nucleoside reverse transcriptase inhibitors” (priority 2004, dated 2009).

Biological target: T1, K103NNY181C mutant reverse transcriptase (Human immunodeficiency virus type 1 group M subtype B, UniProt P04585, K690N/Y768C)
T1 construct: mutations that occur in the reverse transcriptase segment of the pol gene
Assay: Reverse transcriptase enzymatic assay (PicoGreen), K103N/Y181C mutant RT
Format: biochemical, HIV-1
Details: IC50 mut, enzymatic assay of Example 24
Procedure, shortened: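 PicoGreen fluorescence (ex 485, em 520 nm) quantified product after EDTA stop. Reaction ran 50 min at 37 °C in pH 7.8 Tris/HCl buffer, 1% DMSO, with poly rC/dG15 template-primer (45/4.5 nM), 3.6 μM dGTP, 2.5 nM enzyme; inhibitor 10 μM–0.508 nM final after 15 min room-temperature pre-incubation.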

[1] = K103N/Y181C mutant reverse transcriptase

| Compound | IC50 [1] [nM] | IC50 (mutant reverse transcriptase) [nM] |
| --- | --- | --- |
| CC(C)(C#Cc1ccc(NC(=O)CSc2nnnn2-c2ccc(C3CC3)cc2Cl)c(Cl)c1)OCCN [Compound 4190] | 59.5 |  |
| CC(C)(C#Cc1ccc(NC(=O)CSc2nnnn2-c2ccc(C3CC3)cc2Cl)c(Cl)c1)NC(=O)c1ccc[n+]([O-])c1 [Compound 4191] | 4.75 |  |
| CC(C)(C#Cc1ccc(NC(=O)CSc2nnnn2-c2ccc(C3CC3)cc2Cl)c(Cl)c1)NC(=O)CNc1cc[n+]([O-])cc1 [Compound 4193] | 29 |  |
| CC(C)(C#Cc1ccc(NC(=O)CSc2nnnn2-c2cc(Cl)ccc2Cl)c(Cl)c1)NC(=O)CN1CCNCC1 [Compound 4194] | 45 |  |
| CC(C)(C#Cc1ccc(NC(=O)CSc2nnnn2-c2cc(C3CC3)ccc2Cl)c(Cl)c1)NC(=O)CN1CCNCC1 [Compound 4195] | 22.5 |  |
| CC(C)(C#Cc1ccc(NC(=O)CSc2nnnn2-c2cc(C(F)(F)F)ccc2Cl)c(Cl)c1)C(=O)O [Compound 4196] | 198 |  |
| CCS(=O)(=O)NC(=O)C(C)(C)C#Cc1ccc(NC(=O)CSc2nnnn2-c2ccc(C3CC3)cc2Cl)c(Cl)c1 [Compound 4197] | 57.5 |  |
| CC(C)(C#Cc1ccc(NC(=O)CSc2nnnn2-c2ccc(C3CC3)cc2Cl)c(Cl)c1F)NC(=O)CN1CCNCC1 [Compound 4198] | 22 |  |
| CC(C)(O)C#Cc1ccc(NC(=O)CSc2nnnn2-c2cc(C(C)(C)C)ccc2Cl)c(Cl)c1 [Compound 4199] | 32 |  |
| CC(C)(C#Cc1ccc(NC(=O)CSc2nnnn2-c2cc(C(C)(C)C)ccc2Cl)c(Cl)c1)C(=O)O [Compound 4200] | 35.5 |  |
| CC(C)(N)C#Cc1ccc(NC(=O)CSc2nnnn2-c2cc(C(C)(C)C)ccc2Cl)c(Cl)c1 [Compound 4201] | 52 |  |
| CC(C)(C#Cc1ccc(NC(=O)CSc2nnnn2-c2cc(C(C)(C)C)ccc2Cl)c(Cl)c1)NC(=O)CN1CCNCC1 [Compound 4202] | 106 |  |
| CC(C)(C#Cc1ccc(NC(=O)CSc2nnnn2-c2cc(C(C)(C)C)ccc2Cl)c(Cl)c1)NC(=O)CNc1cc[n+]([O-])cc1 [Compound 4203] | 164 |  |
| CC(C)(C#Cc1ccc(NC(=O)CSc2nnnn2-c2cc(C(C)(C)C)ccc2Cl)c(Cl)c1)NC(=O)CN1CCC(C(=O)O)CC1 [Compound 4204] | 35 |  |
| CC(C)(C#Cc1ccc(NC(=O)CSc2nnnn2-c2cc(C(C)(C)C)ccc2Cl)c(Cl)c1)NC(=O)c1cc[n+]([O-])cc1 [Compound 4205] | 28.5 |  |
| CC(C)(C#Cc1ccc(NC(=O)CSc2nnnn2-c2cc(Cl)c(C3CC3)cc2Cl)c(Cl)c1)C(=O)O [Compound 4206] | 152 |  |
| CC(C)(C#Cc1ccc(NC(=O)CSc2nnnn2-c2ccccc2Cl)c(Cl)c1)C(=O)O [Compound 4207] | 442 |  |
| CC(C)(C#Cc1ccc(NC(=O)CSc2nnnn2-c2cc(C3CC3)ccc2Cl)c(Cl)c1)NC(=O)c1cc[n+]([O-])cc1 [Compound 4208] | 6.9 |  |
| CC(C)(C#Cc1ccc(NC(=O)CSc2nnnn2-c2cc(C3CC3)ccc2Cl)c(Cl)c1F)OCCN1CCNCC1 [Compound 4209] | 46 |  |
| CC(C)(C#Cc1ccc(NC(=O)CSc2nnnn2-c2cc(C(F)(F)F)cc(Cl)c2Cl)c(Cl)c1)NC(=O)c1cc[n+]([O-])cc1 [Compound 4210] | 15.5 |  |
| CC(C)(C#Cc1ccc(NC(=O)CSc2nnnn2-c2cc(C(F)(F)F)c(C3CC3)cc2Cl)c(Cl)c1)C(=O)O [Compound 4211] | 482 |  |

| Compound | IC50 [1] [nM] | IC50 (mutant reverse transcriptase) [nM] |
| --- | --- | --- |
| CC(C)(C#Cc1ccc(NC(=O)CSc2nnnn2-c2cc(F)ccc2Cl)c(Cl)c1)C(=O)O [Compound 4212] | 362 |  |
| CC(C)(C#Cc1ccc(NC(=O)CSc2nnnn2-c2cc(CC3CC3)ccc2Cl)c(Cl)c1)C(=O)O [Compound 4213] | 32.5 |  |
| CC(C)(C#Cc1ccc(NC(=O)CSc2nnnn2-c2cc(C3CC3)ccc2Cl)c(Cl)c1)NC(=O)CN [Compound 4214] | 19.5 |  |
| CC(C)(C#Cc1ccc(NC(=O)CSc2nnnn2-c2ccc(C3CC3)cc2Cl)c(Cl)c1F)OCCOc1ccc[n+]([O-])c1 [Compound 4215] | 56.5 |  |
| CC(C)(C#Cc1ccc(NC(=O)CSc2nnnn2-c2ccc(C3CC3)cc2Cl)c(Cl)c1F)OCCN1CCC(F)(F)C1 [Compound 4217] | 90.5 |  |
| CC(C)(C#Cc1ccc(NC(=O)CSc2nnnn2-c2cc(Br)ccc2Cl)c(Cl)c1)C(=O)O [Compound 4218] | 31.5 |  |
| CC(C)(C#Cc1ccc(NC(=O)CSc2nnnn2-c2cc(C(C)(C)C)cc(Br)c2Cl)c(Cl)c1)C(=O)O [Compound 4219] | 97 |  |
| CC(C)(N)C#Cc1ccc(NC(=O)CSc2nnnn2-c2cc(Br)ccc2Cl)c(Cl)c1 [Compound 4220] | 97.5 |  |
| CC(C)(N)C#Cc1ccc(NC(=O)CSc2nnnn2-c2cc(C(C)(C)C)cc(Br)c2Cl)c(Cl)c1 [Compound 4221] | 108 |  |
| CC(C)(C#Cc1ccc(NC(=O)CSc2nnnn2-c2cc(Br)ccc2Cl)c(Cl)c1)NC(=O)c1cc[n+]([O-])cc1 [Compound 4222] | 11.5 |  |
| CC(C)(C#Cc1ccc(NC(=O)CSc2nnnn2-c2cc(C(C)(C)C)cc(Br)c2Cl)c(Cl)c1)NC(=O)c1cc[n+]([O-])cc1 [Compound 4223] | 30 |  |
| CC(C)(C#Cc1ccc(NC(=O)CSc2nnnn2-c2cc(C(C)(C)C)cc(Br)c2Cl)c(Cl)c1)NC(=O)CN1CCNCC1 [Compound 4224] | 101 |  |
| CC(C)(C#Cc1ccc(NC(=O)CSc2nnnn2-c2cc(C(C)(C)C)cc(Br)c2Cl)c(Cl)c1)NC(=O)CNc1cc[n+]([O-])cc1 [Compound 4225] | 162 |  |
| CC(C)(C#Cc1ccc(NC(=O)CSc2nnnn2-c2cc(C(C)(C)C)cc(Br)c2Cl)c(Cl)c1)NC(=O)CN1CCC(C(=O)O)CC1 [Compound 4226] | 52 |  |
| CC(C)(C#Cc1ccc(NC(=O)CSc2nnnn2-c2ccc(C3CC3)cc2Cl)c(Cl)c1)NC(=O)N1CCNCC1 [Compound 4228] | 30 |  |
| CN1CCN(C(=O)NC(C)(C)C#Cc2ccc(NC(=O)CSc3nnnn3-c3ccc(C4CC4)cc3Cl)c(Cl)c2)CC1 [Compound 4229] | 15 |  |
| CC(C)(C#Cc1ccc(NC(=O)CSc2nnnn2-c2cc(C(F)(F)F)cc(C3CC3)c2Cl)c(Cl)c1F)NC(=O)c1ccc[n+]([O-])c1 [Compound 4230] | 30.5 |  |
| CC(C)(C#Cc1ccc(NC(=O)CSc2nnnn2-c2ccc(C3CC3)cc2Cl)c(Cl)c1)NCC(N)=O [Compound 4231] | 16 |  |
| CC(C)(C#Cc1ccc(NC(=O)CSc2nnnn2-c2ccc(C3CC3)cc2Cl)c(Cl)c1)NC(=O)CC(=O)O [Compound 4232] | 10 |  |
| CC(C)(C#Cc1ccc(NC(=O)CSc2nnnn2-c2ccc(C3CC3)cc2Cl)c(Cl)c1)NC(=O)C1(C(=O)O)CC1 [Compound 4233] | 9.35 |  |
| CC(C(=O)O)C(=O)NC(C)(C)C#Cc1ccc(NC(=O)CSc2nnnn2-c2ccc(C3CC3)cc2Cl)c(Cl)c1 (centres unmarked) [Compound 4234] | 15.5 |  |

| Compound | IC50 [1] [nM] | IC50 (mutant reverse transcriptase) [nM] |
| --- | --- | --- |
| CC(C)(C#Cc1ccc(NC(=O)CSc2nnnn2-c2cc(C(F)(F)F)cc(C3CC3)c2Cl)c(Cl)c1)OCCN1CCNCC1 [Compound 4235] | 718 |  |
| CC(C)(C#Cc1ccc(NC(=O)CSc2nnnn2-c2cc(C(F)(F)F)cc(C3CC3)c2Cl)c(Cl)c1F)NC(=O)CN1CCNCC1 [Compound 4236] | 250 |  |
| CC(C)(N)C#Cc1ccc(NC(=O)CSc2nnnn2-c2cc(C(F)(F)F)cc(C3CC3)c2Cl)c(Cl)c1F [Compound 4237] | 91.5 |  |
| CC(C)(C#Cc1ccc(NC(=O)CSc2nnnn2-c2ccc(C3CC3)cc2Cl)c(Cl)c1)NC(=O)CCC(=O)O [Compound 4238] | 7.8 |  |
| C[C@H](CC(=O)O)C(=O)NC(C)(C)C#Cc1ccc(NC(=O)CSc2nnnn2-c2ccc(C3CC3)cc2Cl)c(Cl)c1 [Compound 4239] | 8.2 |  |
| CC(C)(C#Cc1ccc(NC(=O)CSc2nnnn2-c2ccc(CC3CC3)cc2Cl)c(Cl)c1)C(=O)O [Compound 4240] | 175 |  |
| CC(C)(C#Cc1ccc(NC(=O)CSc2nnnn2-c2ccc(C3CC3)cc2Cl)c(Cl)c1)OCCN1CCS(=O)(=O)CC1 [Compound 4241] | 30.5 |  |
| CC(C)(C#Cc1ccc(NC(=O)CSc2nnnn2-c2cc(C(F)(F)F)cc(C3CC3)c2Cl)c(Cl)c1)OCCN1CCC(F)(F)C1 [Compound 4242] | 854 |  |
| CN(C)c1ccc(Cl)c(-n2nnnc2SCC(=O)Nc2ccc(C#CC(C)(C)C(=O)O)cc2Cl)c1 [Compound 4243] | 140 |  |
| CC(C)(C#Cc1ccc(NC(=O)CSc2nnnn2-c2ccc(CC3CC3)cc2Cl)c(Cl)c1)C(=O)NCCCN1CCCC1=O [Compound 4244] | 217 |  |
| CN(C)CCCNC(=O)C(C)(C)C#Cc1ccc(NC(=O)CSc2nnnn2-c2ccc(CC3CC3)cc2Cl)c(Cl)c1 [Compound 4245] | 459 |  |
| CC(C)(C#Cc1ccc(NC(=O)CSc2nnnn2-c2ccc(CC3CC3)cc2Cl)c(Cl)c1)OCCN1CCCC1 [Compound 4246] | 212 |  |
| CC(C)(C#Cc1ccc(NC(=O)CSc2nnnn2-c2ccc(CC3CC3)cc2Cl)c(Cl)c1)NC(=O)c1cc[n+]([O-])cc1 [Compound 4247] | 19 |  |
| CC(C)(C#Cc1ccc(NC(=O)CSc2nnnn2-c2cc(C3CC3)cc(C(F)(F)F)c2Cl)c(Cl)c1F)NC(=O)c1ccc[n+]([O-])c1 [Compound 4248] | 30.5 |  |
| O=C(CSc1nnnn1-c1ccc(C2CC2)cc1Cl)Nc1ccc(C#CC(O)(C(F)(F)F)C(F)(F)F)cc1Cl [Compound 4249] | 203 |  |
| CC(C)(N)C#Cc1ccc(NC(=O)CSc2nnnn2-c2cc(C3CC3)cc(C(F)(F)F)c2Cl)c(Cl)c1F [Compound 4250] | 51.5 |  |
| Cc1cc(NC(=O)COc2ccc(NC(=O)CSc3nnnn3-c3ccc(C(C)(C)C)cc3Cl)c(Cl)c2)no1 [Compound 5001] |  | 71 |
| CC(C)(C)c1ccc(-n2nnnc2SCC(=O)Nc2ccc(OCC(=O)NCc3ccco3)cc2Cl)c(Cl)c1 [Compound 5002] |  | 137 |
| CN1CCN(C(=O)COc2ccc(NC(=O)CSc3nnnn3-c3ccc(C(C)(C)C)cc3Cl)c(Cl)c2)CC1 [Compound 5003] |  | 48 |
| CC(C)(C)c1ccc(-n2nnnc2SCC(=O)Nc2ccc(OCC(=O)N3CCOCC3)cc2Cl)c(Cl)c1 [Compound 5004] |  | 41 |
